From article PMC8217170, “Phase Ib dose-escalation study of the hypoxia-modifier Myo-inositol trispyrophosphate in patients with hepatopancreatobiliary tumors” (Nature Communications, 2021)

Assay: Plasma levels and pharmacokinetics of intravenous ITPP

O=P1(O)OC2C3OP(=O)(O)OP(=O)(O)OC3C3OP(=O)(O)OP(=O)(O)OC3C2OP(=O)(O)O1 (stereo not shown) [ITPP, Myo-inositol trispyrophosphate]
Tmax (cohort 1, 1866 mg/m2): 6.0 h | VSS (cohort 1, 1866 mg/m2): 11.0 L | ITPP plasma levels: Concentration (cohort 1, patient 2, day 1, hour 0, sample 1_1_1): 0 µg/mL | ITPP plasma levels: Concentration (cohort 1, patient 2, day 1, hour 3, sample 1_1_2): 71.4 µg/mL | ITPP plasma levels: Concentration (cohort 1, patient 2, day 1, hour 6, sample 1_1_3): 64.4 µg/mL | ITPP plasma levels: Concentration (cohort 1, patient 2, day 1, hour 8.5, sample 1_1_4): 37.7 µg/mL | ITPP plasma levels: Concentration (cohort 1, patient 2, day 1, hour 9, sample 1_1_5): 27.2 µg/mL | ITPP plasma levels: Concentration (cohort 1, patient 2, day 2, hour 0, sample 1_2_1): 0 µg/mL | ITPP plasma levels: Concentration (cohort 1, patient 2, day 2, hour 9, sample 1_2_5): 31.6 µg/mL | ITPP plasma levels: Concentration (cohort 1, patient 2, day 3, hour 0, sample 1_3_1): 0 µg/mL | ITPP plasma levels: Concentration (cohort 1, patient 2, day 3, hour 9, sample 1_3_5): 28.7 µg/mL | ITPP plasma levels: Concentration (cohort 1, patient 4, day 2, hour 9, sample 5_2_5): 32.7 µg/mL | ITPP plasma levels: Concentration (cohort 1, patient 4, day 3, hour 0, sample 5_3_1): 0 µg/mL | ITPP plasma levels: Concentration (cohort 1, patient 4, day 3, hour 9, sample 5_3_5): 30.4 µg/mL | ITPP plasma levels: Concentration (cohort 1, patient 4, day 4, hour 0, sample 5_4_1): 0 µg/mL | ITPP plasma levels: Concentration (cohort 1, patient 4, day 4, hour 9, sample 5_4_5): 28.7 µg/mL | ITPP plasma levels: Concentration (cohort 1, patient 4, day 5, hour 0, sample 5_5_1): 0 µg/mL | ITPP plasma levels: Concentration (cohort 1, patient 4, day 5, hour 3, sample 5_5_2): 33.3 µg/mL | ITPP plasma levels: Concentration (cohort 1, patient 4, day 5, hour 6, sample 5_5_3): 38.4 µg/mL | ITPP plasma levels: Concentration (cohort 1, patient 4, day 5, hour 8.5, sample 5_5_4): 40.9 µg/mL | ITPP plasma levels: Concentration (cohort 1, patient 4, day 5, hour 9, sample 5_5_5): 29.6 µg/mL | ITPP plasma levels: Concentration (cohort 1, patient 4, day 5, hour 10, sample 5_5_6): 22 µg/mL | ITPP plasma levels: Concentration (cohort 1, patient 4, day 6, hour 0, sample 5_6_1): 0 µg/mL | ITPP plasma levels: Concentration (cohort 1, patient 4, day 6, hour 9, sample 5_6_5): 32.4 µg/mL | ITPP plasma levels: Concentration (cohort 1, patient 4, day 7, hour 0, sample 5_7_1): 0 µg/mL | ITPP plasma levels: Concentration (cohort 1, patient 4, day 7, hour 9, sample 5_7_5): 36.7 µg/mL | ITPP plasma levels: Concentration (cohort 1, patient 4, day 8, hour 0, sample 5_8_1): 0 µg/mL | ITPP plasma levels: Concentration (cohort 1, patient 4, day 8, hour 9, sample 5_8_5): 31.5 µg/mL | ITPP plasma levels: Concentration (cohort 1, patient 4, day 9, hour 0, sample 5_9_1): 0 µg/mL | ITPP plasma levels: Concentration (cohort 1, patient 4, day 9, hour 3, sample 5_9_2): 38.7 µg/mL | ITPP plasma levels: Concentration (cohort 1, patient 4, day 9, hour 6, sample 5_9_3): 43.5 µg/mL | ITPP plasma levels: Concentration (cohort 1, patient 4, day 9, hour 8.5, sample 5_9_4): 42.1 µg/mL | ITPP plasma levels: Concentration (cohort 1, patient 4, day 9, hour 9, sample 5_9_5): 26.1 µg/mL | AUC (cohort 2, 3732 mg/m2): 847.4 µg·h/mL | AUMC (cohort 2, 3732 mg/m2): 4925.6 h2*mg/L | CL (cohort 2, 3732 mg/m2): 3.8 L/h | Clast (cohort 2, 3732 mg/m2): 55.8 µg/mL | Cmax (cohort 2, 3732 mg/m2): 120.6 µg/mL | Cmin (cohort 2, 3732 mg/m2): 0 ng/mL | Elimination rate λz (cohort 2, 3732 mg/m2): 0.4 h⁻¹ | Half life/T0.5 (cohort 2, 3732 mg/m2): 1.8 h | MRT (cohort 2, 3732 mg/m2): 1.8 h | Tlast (cohort 2, 3732 mg/m2): 10.0 h | Tmax (cohort 2, 3732 mg/m2): 6.0 h | VSS (cohort 2, 3732 mg/m2): 10.5 L | ITPP plasma levels: Concentration (cohort 2, patient 5, day 1, hour 0, sample 6_1_1): 0 µg/mL | ITPP plasma levels: Concentration (cohort 2, patient 5, day 1, hour 3, sample 6_1_2): 81 µg/mL | ITPP plasma levels: Concentration (cohort 2, patient 5, day 1, hour 6, sample 6_1_3): 102 µg/mL | ITPP plasma levels: Concentration (cohort 2, patient 5, day 1, hour 8.5, sample 6_1_4): 86.1 µg/mL | ITPP plasma levels: Concentration (cohort 2, patient 5, day 1, hour 9, sample 6_1_5): 66.5 µg/mL | ITPP plasma levels: Concentration (cohort 2, patient 5, day 1, hour 10, sample 6_1_6): 42.7 µg/mL | ITPP plasma levels: Concentration (cohort 2, patient 5, day 2, hour 0, sample 6_2_1): 0 µg/mL | ITPP plasma levels: Concentration (cohort 2, patient 5, day 2, hour 9, sample 6_2_5): 78.6 µg/mL | ITPP plasma levels: Concentration (cohort 2, patient 5, day 3, hour 0, sample 6_3_1): 0 µg/mL | ITPP plasma levels: Concentration (cohort 2, patient 5, day 3, hour 9, sample 6_3_5): 61.7 µg/mL
